Results published in US20180208605A1, “Substituted Aza Compounds as IRAK-4 Inhibitors” (AURIGENE DISCOVERY TECHNOLOGIES LIMITED, priority 2015, published 2018).
Structures can show the parent of a compound that is named as a salt. Where two headings read alike, the source gives them in different places.

Molecular target: T1, recombinant IRAK-4 kinase (Homo sapiens, UniProt Q9NWZ3)
T1 construct: purchased Millipore, USA
T1 sequence (Q9NWZ3 1-460): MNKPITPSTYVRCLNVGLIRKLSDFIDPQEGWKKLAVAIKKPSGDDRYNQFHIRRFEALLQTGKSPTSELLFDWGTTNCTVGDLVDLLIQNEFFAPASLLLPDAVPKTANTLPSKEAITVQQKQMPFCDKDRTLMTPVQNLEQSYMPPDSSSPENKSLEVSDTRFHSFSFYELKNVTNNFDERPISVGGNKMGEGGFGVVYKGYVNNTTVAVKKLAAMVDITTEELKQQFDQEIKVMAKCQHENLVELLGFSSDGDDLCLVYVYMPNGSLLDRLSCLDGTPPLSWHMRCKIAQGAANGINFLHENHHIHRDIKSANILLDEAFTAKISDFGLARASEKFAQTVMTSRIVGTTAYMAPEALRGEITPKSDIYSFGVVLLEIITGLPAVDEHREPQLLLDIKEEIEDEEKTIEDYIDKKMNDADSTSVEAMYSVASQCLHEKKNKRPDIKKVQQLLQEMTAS
Experiment: IRAK-4 Biochemical Assay (TR-FRET, percent inhibition)
Details: for % inhibition of IRAK-4 @0.1 μM: compound at 0.1 μM; for % inhibition of IRAK-4 @ 1 μM: compound at 1 μM
Method in brief: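 IRAK-4 pre-incubated with compound 30 min at room temperature in Tris-HCl pH 7.5 buffer with MgCl2, MnCl2 and DTT, then reacted 30 min with 100 nM biotin-histone H3 and 20 μM ATP. EDTA stop with Eu-anti-phospho-H3 (Ser10) and APC-streptavidin. Percent inhibition derived from the 665/615 nm emission ratio at 340 nm excitation.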

[1] = read-out: % inhibition of IRAK-4 @0.1 μM, compound at 0.1 μM, TR-FRET, 20 μM ATP, 100 nM Biotin Histone H3
[2] = read-out: % inhibition of IRAK-4 @ 1 μM, compound at 1 μM, TR-FRET, 20 μM ATP, 100 nM Biotin Histone H3
[3] = TR-FRET, 20 μM ATP, 100 nM Biotin Histone H3

Row | Structure (SMILES) | inhibition at 0.1 µM [1] [%] | inhibition at 1 µM [2] [%] | also measured
1 | Cc1cc(-c2nc(C(=O)Nc3cc4oc(N5CCOCC5)nc4nc3N3CC(C)(C)CC3=O)co2)ccn1 [Example 86, N-(5-(4,4-dimethyl-2-oxopyrrolidin-1-yl)-2-morpholinooxazolo[4,5-b]pyridin-6-yl)-2-(2-methylpyridin-4-yl)oxazole-4-carboxamide] | 65 | 57 | –
2 | CCOP(=O)(OCC)O[C@H]1CCN(c2cccc(C(=O)Nc3cc4sc(N5CCOCC5)nc4nc3N3CCCCC3)n2)C1 [Example 47, (S)-diethyl (1-(6-((2-morpholino-5-(piperidin-1-yl)thiazolo[4,5-b]pyridin-6-yl)carbamoyl)pyridin-2-yl)pyrrolidin-3-yl)phosphate] | – | – | inhibition at 0.1 µM (read-out: % inhibition of IRAK-4 @0.1 μM): 18%; inhibition at 1 µM (read-out: % inhibition of IRAK-4 @ 1 μM): 58%
3 | NCC(=O)OC1CCN(c2cccc(C(=O)Nc3cc4sc(N5CCOCC5)nc4nc3N3CCOCC3)n2)C1 (stereo not drawn) [Example 79, 1-(6-((2,5-dimorpholinothiazolo[4,5-b]pyridin-6-yl)carbamoyl)pyridin-2-yl)pyrrolidin-3-yl glycinate] | 70 | 96 | –
4 | Nc1ccc(-c2cccc(C(=O)Nc3cc4sc(N5CCOCC5)nc4nc3N3CCCCC3)n2)cn1 [Example 75, 6′-amino-N-(2-morpholino-5-(piperidin-1-yl)thiazolo[4,5-b]pyridin-6-yl)-[2,3′-bipyridine]-6-carboxamide] | 98 | 78 | –
5 | Cl.O=C(Nc1cc2sc(N3CCOCC3)nc2nc1C1CC1)c1cnn2cccnc12 [Example 106, N-(5-cyclopropyl-2-morpholinothiazolo[4,5-b]pyridin-6-yl)pyrazolo[1,5-a]pyrimidine-3-carboxamide hydrochloride] | – | – | % inhibition of IRAK-4 @0.1 μM [3]: 93%; % inhibition of IRAK-4 @ 1 μM [3]: 97%
6 | O=C(Nc1cc2sc(N3CCOCC3)nc2nc1N1CCCCC1)c1cnn2cccnc12 [Example 19, N-(2-morpholino-5-(piperidin-1-yl)thiazolo[4,5-b]pyridin-6-yl)pyrazolo[1,5-a]pyrimidine-3-carboxamide] | – | – | % inhibition of IRAK-4 @0.1 μM [3]: 98%; % inhibition of IRAK-4 @ 1 μM [3]: 99%
7 | O=C(Nc1cc2sc(N3CCOCC3)nc2nc1N1CCC[C@@H](O)C1)c1cccc(N2CCCCC2)n1 [Example 40, (R)-N-(5-(3-hydroxypiperidin-1-yl)-2-morpholinothiazolo[4,5-b]pyridin-6-yl)-6-(piperidin-1-yl)picolinamide] | 96 | 99 | –
8 | O=C(Nc1cc2sc(N3CCOCC3)nc2nc1N1CCCCC1)c1cccc(N2CCC(C(=O)O)CC2)n1 [Example 80, 1-(6-((2-morpholino-5-(piperidin-1-yl)thiazolo[4,5-b]pyridin-6-yl)carbamoyl)pyridin-2-yl)piperidine-4-carboxylic acid] | – | – | % inhibition of IRAK-4 @0.1 μM [3]: 96%; % inhibition of IRAK-4 @ 1 μM [3]: 99%

Now from value to compound, other results behind:

Row | inhibition at 0.1 µM [1] [%] | inhibition at 1 µM [2] [%] | Structure (SMILES) | also measured
9 | 74 | 92 | NCC(=O)O[C@H]1CCN(c2nccc(C(=O)Nc3cc4sc(N5CCOCC5)nc4nc3N3CCCCC3)n2)C1 [Example 64, (S)-1-(4-((2-morpholino-5-(piperidin-1-yl)thiazolo[4,5-b]pyridin-6-yl)carbamoyl)pyrimidin-2-yl)pyrrolidin-3-yl glycinate] | –
10 | 69 | 97 | Cc1cc(-c2c[nH]c(C(=O)Nc3cc4sc(N5CCOCC5)nc4nc3N3CC[C@@H](O)C3)c2)ccn1 [Example 73, (R)-N-(5-(3-hydroxypyrrolidin-1-yl)-2-morpholinothiazolo[4,5-b]pyridin-6-yl)-4-(2-methylpyridin-4-yl)-1H-pyrrole-2-carboxamide] | –
11 | 98 | 98 | Cn1cc(-c2nc(C(=O)Nc3cc4sc(N5CCOCC5)nc4nc3N3CCCCC3)co2)cc(F)c1=O [Example 13, 2-(5-fluoro-1-methyl-6-oxo-1,6-dihydropyridin-3-yl)-N-(2-morpholino-5-(piperidin-1-yl)thiazolo[4,5-b]pyridin-6-yl)oxazole-4-carboxamide] | –
12 | 95 | 95 | O=C(Nc1cc2sc(N3CCOCC3)nc2nc1N1CCCCC1)c1cncc(N2CC[C@H](O)C2)n1 [Example 63, (S)-6-(3-hydroxypyrrolidin-1-yl)-N-(2-morpholino-5-(piperidin-1-yl)thiazolo[4,5-b]pyridin-6-yl)pyrazine-2-carboxamide] | –
13 | 96 | 99 | O=C(Nc1cc2sc(N3CCOCC3)nc2nc1C1CC1)c1cnn2ccc(N3CCC[C@H](O)C3)nc12 [Example 100, (S)-N-(5-cyclopropyl-2-morpholinothiazolo[4,5-b]pyridin-6-yl)-5-(3-hydroxypiperidin-1-yl)pyrazolo[1,5-a]pyrimidine-3-carboxamide] | –
14 | 94 | 98 | Cc1ccc(C(=O)Nc2cc3sc(N4CCOCC4)nc3nc2N2CCCCC2)nc1N1CC[C@H](O)C1 [Example 84, (S)-6-(3-hydroxypyrrolidin-1-yl)-5-methyl-N-(2-morpholino-5-(piperidin-1-yl)thiazolo[4,5-b]pyridin-6-yl)picolinamide] | –
15 | 57 | 92 | O=C(Nc1cc2oc(N3CCOCC3)nc2nc1C1CC1)c1cnn2cccnc12 [Example 107, N-(5-cyclopropyl-2-morpholinooxazolo[4,5-b]pyridin-6-yl)pyrazolo[1,5-a]pyrimidine-3-carboxamide hydrochloride] | –
16 | 94 | 96 | O=C(Nc1cc2sc(N3CCOCC3)nc2nc1N1CCCCC1)c1cccc(N2CCC(C(=O)O)CC2)n1 [Example 71, sodium 1-(6-((2-morpholino-5-(piperidin-1-yl)thiazolo[4,5-b]pyridin-6-yl)carbamoyl)pyridin-2-yl)piperidine-4-carboxylate] | –
17 | 75 | 94 | O=C(Nc1cc2sc(N3CCOCC3)nc2nc1N1CCCCC1)c1cccc(NC2CCC(CO)CC2)n1 (stereo not drawn) [Example 46, 6-((4-(hydroxymethyl)cyclohexyl)amino)-N-(2-morpholino-5-(piperidin-1-yl)thiazolo[4,5-b]pyridin-6-yl)picolinamide] | –
18 | 97 | 99 | O=C(Nc1cc2sc(N3CCOCC3)nc2nc1N1CCCCC1)c1cccc(N2CC[C@@H](O)C2)n1 [Example 34, (R)-6-(3-hydroxypyrrolidin-1-yl)-N-(2-morpholino-5-(piperidin-1-yl)thiazolo[4,5-b]pyridin-6-yl)picolinamide] | –
